Tested on: SARS-CoV-2 B.1.351 variant
Assay type: in vivo, Mouse (Mus musculus)

IINPRGDGTRYAQKFQG [SEQ ID NO: 082] was tested, and the “survival time vs control group (log-rank test)” value ([…], control median survival 7 days) was “significant improvement in survival time”, the “clinical signs (score 0-4)” value (mouse, in vivo) was “No clinical signs” and the “survival proportion at day 21” value (mouse, in vivo) was 100%. For the same sequence, the “change in bodyweight (AUC) / weight loss vs control group” value (mouse, in vivo, listed as test polypeptide) was “significant reduction in weight loss”.
